Results taken from article PMC8235719, “New RAD51 Inhibitors to Target Homologous Recombination in Human Cells” (Genes, 2021).
Converted amounts (≈) assume the structure as drawn. Where two headings read alike, the source gives them in different places. Each block holds one compound with its values, some of them ahead of it.

Assays:
[1] = tested on: HR in human U-2 OS IndDR-GFP cells; test: Inducible I-SceI DR-GFP assay (IndDR-GFP), inhibition of HR; assay type: cell-based; settings: Homo sapiens, U2OS; U-2 OS IndDR-GFP cells; 24 h with compound; ± SD; read-out: IC50, efficiency of HR inhibition in IndDR-GFP assay
Procedure: Exponentially growing U-2 OS IndDR-GFP cells were seeded at a density of 2 × 10^5 cells/well into 6-well plates with DMEM media containing 80 µg/mL G418 and indicated concentrations of RAD51i(s). For I-SceI induced samples, the media were supplemented with 0.5 µM Shield1 (Clontech, Mountain View, CA, USA) with 100 nM triamcinolone acetonide (Sigma, St. Louis, MO, USA). After 24 h of incubation, the media were removed, cells were washed with the DMEM, and the incubation continued for 48 h in DMEM containing 100 units/mL penicillin, 100 µg/mL streptomycin, and 80 µg/mL G418. Then, cells were trypsinized, trypsin solution was neutralized with an equal volume of media, and 10% formaldehyde solution in PBS was added for fixation to reach a final concentration of formaldehyde of 3.3%. The yield of GFP-positive cells indicative of HR activity was measured by flow cytometry with the Guava easyCyte system, and the data were analyzed with the InCyte program (Millipore; Burlington, VT, USA).

[2] = tested on: RAD51 foci in U-2 OS IndDR-GFP cells; design: method as in PMID 24971740; settings: earlier work; cited from earlier work
[3] = tested on: HR in U-2 OS DR-GFP cells; test: Canonical DR-GFP assay, inhibition of HR; assay type: cell-based; settings: Homo sapiens, U2OS
HsRAD51 [4] = target: T1, HsRAD51 (Homo sapiens, UniProt Q06609); design: method as in PMID 22380680; settings: earlier work; cited from earlier work
T1 sequence (Q06609 1-339): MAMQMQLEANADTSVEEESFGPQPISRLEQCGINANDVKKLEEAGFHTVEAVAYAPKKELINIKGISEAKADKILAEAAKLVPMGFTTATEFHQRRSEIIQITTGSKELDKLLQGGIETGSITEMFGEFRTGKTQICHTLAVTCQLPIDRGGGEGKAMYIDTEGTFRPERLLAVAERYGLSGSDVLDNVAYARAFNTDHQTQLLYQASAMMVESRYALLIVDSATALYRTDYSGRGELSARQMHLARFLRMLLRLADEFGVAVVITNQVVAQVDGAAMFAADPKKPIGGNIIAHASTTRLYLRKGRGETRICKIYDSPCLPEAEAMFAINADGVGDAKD

Solubility in DMSO = assay type: physicochemical; settings: organic solvent or mixture; in 100% DMSO; read-out: Maximal soluble concentration
HsRAD51 [5] = target: T1, HsRAD51; test: Surface plasmon resonance (SPR) binding to immobilized RAD51; settings: 25 °C, equilibrium analysis, ± SD, read-out: KD, equilibrium dissociation constant of direct binding to hRAD51
Procedure: The binding of RAD51i to RAD51 was examined using a ProteOn XPR36 SPR Protein Interaction Array System (Bio-Rad, Hercules, CA, USA) at 25 °C. ProteOn GLH sensor chips were preconditioned with two 10 s pulses of 50 mM NaOH, 100 mM HCl, and 0.5% SDS followed by the system equilibration with the running buffer (20 mM sodium phosphate, 150 mM NaCl, and 0.005% Tween 20, pH 7.4). The surface of a GLH sensorchip was subsequently activated with a 1:100 dilution of a 1:1 mixture of 0.2 M EDC and 0.05 M Sulfo-NHS. Purified HsRAD51 was diluted to 500 µg/mL in 10 mM sodium acetate, pH 5.5, and injected immediately after chip activation across the ligand flow channels at 30 µL/min for 5 min. Unreacted protein was washed out, and the excess of unreacted ester groups on the sensor surface was capped by an injection of 1 M ethanolamine-HCl, pH 8.0, at 5 µL/min for 5 min. A reference surface to correct for nonspecific binding was similarly created by immobilizing an IgG b12 anti-HIV-1 gp120 antibody (IgG b12 anti-HIV-1 gp120; was obtained through the NIH AIDS Reagent Program, Division of AIDS, NIAID, NIH: Anti-HIV-1 gp120 Monoclonal (IgG1 b12) from Drs. Dennis Burton and Carlos Barbas). Serial dilutions of the compounds were prepared in the running buffer supplemented with 8% DMSO and injected at a flow rate of 100 μL/min for a 1 min association phase, followed by a 5 min dissociation phase using the “one-shot kinetics” functionality of the ProteOn instrument. Data were analyzed with ProteOn Manager Software version 3.0 (Bio-Rad; Hercules, CA, USA). The responses from the reference flow cell were subtracted to account for the non-specific binding and injection artifacts. Experiments were repeated at least three times. The equilibrium dissociation constants (KD) for the interactions were calculated in ProteOn Manager Version 3.1.0.6 (Bio-Rad; Hercules, CA, USA) using the equilibrium analysis function.

MDA-MB-231 cells = test: Cell viability assay (Guava ViaCount flow cytometry), MDA-MB-231; assay type: cell-based, human; settings: Homo sapiens
Procedure: (§1) For all cell viability experiments, except experiments involving MMS treatment, cells were seeded into the media containing indicated concentrations of tested compounds or corresponding amounts of DMSO in controls. The concentration of DMSO in media was 0.1%. MDA-MB-231 cells were seeded into 24-well plates at 3.5 × 10^4 cells/well for cells for a 4-day treatment or at 5000 cells/well for a 10-day treatment. MCF 10A cells were seeded into 24-well plates at 1.5 × 10^4 cells/well for a 4-day treatment or at 500 cells/well for a 10-day treatment. In the case of 10-day treatments, the media with compounds were renewed twice on the 4th and the 7th days of treatments. After completion of the treatments, cells were harvested, and their viability was determined by flow cytometry with Guava ViaCount reagent (Luminex; Austin, TX USA). Data were analyzed using the Guava ViaCount software (Millipore; Burlington, VT, USA). The IC50 values were calculated using the GraphPad Prism 5 software (San Diego, CA, USA).

MCF 10A cells = test: Cell viability assay (Guava ViaCount flow cytometry), MCF 10A; assay type: cell-based, human; settings: 4-day treatment
Procedure: as §1

SMILES: O=c1nc(/C=C/c2cccnc2)n(Cc2ccccc2Cl)c2ccccc12 [o-Cl-B02-iso]
- IC50 [1]: 5.56 ± 0.49 µM

SMILES: O=c1c2ccccc2nc(/C=C/c2cccnc2)n1Cc1ccccc1 [B02]
- RAD51 foci formation induced by cisplatin [2]: disrupts RAD51 foci formation
- IC50 [3]: 17.9 ± 3.5 µM
- IC50 [1]: 17.7 ± 3.89 µM
- Binding to RAD51 in vitro by SPR (HsRAD51 [4]): binds to RAD51 directly in vitro

SMILES: O=C(c1cc(Cc2n[nH]c(=O)c3ccccc23)ccc1F)N1CCN(C(=O)C2CC2)CC1 [olaparib, reference compound]
- IC50 (MDA-MB-231 cells; MDA-MB-231, 240 h, MDA-MB-231, 10-day treatment, olaparib only (DMSO), read-out: IC50 of olaparib, cell viability): 8.6 µM
- IC50 (MDA-MB-231 cells; MDA-MB-231, 240 h, MDA-MB-231 transfected with antiRAD51 siRNA_A, 10 days olaparib, read-out: IC50 of olaparib, cell viability): 3.2 µM
- IC50 (MDA-MB-231 cells; MDA-MB-231, 240 h, MDA-MB-231 transfected with scrambled siRNA, 10 days olaparib, read-out: IC50 of olaparib, cell viability): 6.3 µM

Continued, in another order:

- solubility (Solubility in DMSO): 500 µM (≈ 209 µg/mL)
- IC50 [1]: 0.8 ± 0.1 µM
SMILES: O=c1nc(/C=C/c2cccnc2)n(Cc2ccc(Br)cc2)c2ccccc12 [p-Br-B02-iso]

- IC50 [1]: 4.6 ± 1.28 µM
SMILES: O=c1nc(/C=C/c2cccnc2)n(Cc2ccccc2Br)c2ccccc12 [o-Br-B02-iso]

- Kd (HsRAD51 [5]): 8.4 ± 1.8 µM
- IC50 [1]: 0.9 ± 0.18 µM
SMILES: O=c1nc(/C=C/c2cccnc2)n(Cc2cccc(Br)c2)c2ccccc12 [m-Br-B02-iso]

- IC50 [1]: 0.86 ± 0.02 µM
SMILES: O=c1nc(/C=C/c2cccnc2)n(Cc2cccc(I)c2)c2ccccc12 [m-I-B02-iso]

- Kd (HsRAD51 [5]): 1.4 ± 0.6 µM
- IC50 (MDA-MB-231 cells; MDA-MB-231, 96 h, MDA-MB-231, 4-day treatment, read-out: IC50 of cell viability): 1.1 µM
- IC50 [1]: 0.72 ± 0.07 µM
SMILES: O=c1nc(/C=C/c2cccnc2)n(Cc2ccc(I)cc2)c2ccccc12 [p-I-B02-iso]
- Times lower sensitivity of MCF 10A compared with MDA-MB-231 (MCF 10A cells; ratio of IC50): approximately 3
- IC50 (MCF 10A cells; Homo sapiens, 96 h, MCF 10A): 2.7 µM
